Where a name gives a salt, the structure may show the parent alone.
Legend:
[1] = tested on: PDE4; experiment: Inhibition of PDE4 activity ([3H]cAMP hydrolysis, cytosol from human neutrophils); assay type: biochemical; details: 0.5 μM cAMP, Motapizone (1 μM) included to suppress PDE3 activity, 15 min at 37° C.
Description: Method for Measuring Inhibition of PDE4 Activity
PDE4 activity was determined as described by Thompson et al. (Adv Cycl Nucl Res 10: 69-92, 1979) with some modifications (Bauer and Schwabe, Naunyn-Schmiedeberg's Arch Pharmacol 311: 193-198, 1980). At a final assay volume of 200 μl (96 well microtiter plates) the assay mixture contained 20 mM Tris (pH 7.4), 5 mM MgCl2, 0.5 μM cAMP, [^3H]cAMP (about 30,000 cpm/assay), the test compound and an aliquot of cytosol from human neutrophils which mainly contains PDE4 activity as described by Schudt et al. (Naunyn-Schmiedeberg's Arch Pharmacol 344: 682-690, 1991); the PDE3-specific inhibitor Motapizone (1 μM) was included to suppress PDE3 activity originating from contaminating platelets. Serial dilutions of the compounds were prepared in DMSO and further diluted 1:100 (v/v) in the assays to obtain the desired final concentrations of the inhibitors at a DMSO concentration of 1% (v/v) which by itself only slightly affected PDE4 activity.
After preincubation for 5 min at 37° C., the reaction was started by the addition of substrate (cAMP) and the assays were incubated for further 15 min at 37° C. 50 μl of 0.2 N HCl was added to stop the reaction and the assays were left on ice for about 10 min. Following incubation with 25 μg 5′-nucleotidase (Crotalus atrox snake venom) for 10 min at 37° C., the assays were loaded on QAE Sephadex A-25 (1 ml bed volume). The columns were eluted with 2 ml of 30 mM ammonium formiate (pH 6.0) and the eluate was counted for radioactivity. Results were corrected for blank values (measured in the presence of denatured protein) which were below 5% of total radioactivity. […] The IC50 -values for the compounds according to the invention for the inhibition of the PDE4 activity were determined from the concentration-inhibition curves by nonlinear-regression.
The inhibitory values determined for the compounds according to the invention follow from the following table A, in which the numbers of the compounds correspond to the numbers of the examples.

**Q.** With `CCOc1ccc(C2=NN(C3CCN(C(=O)NC(C)(C)C)CC3)C(=O)[C@@H]3CC=CC[C@H]23)cc1OCC` [compound 6, 4-[(4aS,8aR)-4-(3,4-Diethoxyphenyl)-1-oxo-4a,5,8,8a-tetrahydro-1H-phthalazin-2-yl]-piperidine-1-carboxylic acid tert-butylamide] as the compound, how does the melting point read?
**A.** 145 to 148 °C

**Q.** Which “Inhibition of PDE4 acitivity [measured as -logIC50 (mol/l)]” value [1] does the source give for `COc1ccc(C2=NN(C3CCN(CC(N)=O)CC3)C(=O)C3CC=CCC23)cc1OC` [compound 31, 2-{4-[(4aS,8aR)-4-(3,4-Dimethoxyphenyl)-1-oxo-4a,5,8,8a-tetrahydro-1H-phthalazin-2-yl]-piperidin-1-yl}-2H-acetamide hydrochloride] here?
**A.** 9.20

**Q.** With `CCN1CCN(C(=O)N2CCC(N3N=C(c4ccc(OC)c(OC)c4)[C@H]4CC=CC[C@H]4C3=O)CC2)C(=O)C1=O` [compound 29, 1-(1-{4-[(4aS,8aR)-4-(3,4-Dimethoxyphenyl)-1-oxo-4a,5,8,8a-tetrahydro-1H-phthalazin-2-yl]-piperidin-1-yl}-methanoyl)-4-ethyl-piperazine-2,3-dione] as the compound, how does the “Inhibition of PDE4 acitivity [measured as -logIC50 (mol/l)]” value [1] read?
**A.** 10.87

**Q.** With `COc1ccc(C2=NN(C3CCN(c4ncccn4)CC3)C(=O)[C@@H]3CC=CC[C@H]23)cc1OC` [compound 17, (4aS,8aR)-4-(3,4-Dimethoxyphenyl)-2-(1-pyrimidin-2-yl-piperidin-4-yl)-4a,5,8,8a-tetrahydro-2H-phthalazin-1-one] as the compound, how does the “Inhibition of PDE4 acitivity [measured as -logIC50 (mol/l)]” value [1] read?
**A.** 10.51

**Q.** Which melting point does the source give for `COc1ccc(C2=NN(C3CCN(c4ncnc5sccc45)CC3)C(=O)[C@@H]3CC=CC[C@H]23)cc1OC` [compound 16, (4aS,8aR)-4-(3,4-Dimethoxyphenyl)-2-(1-thieno[2,3-d]pyrimidin-4-yl-piperidin-4-yl)-4a,5,8,8a-tetrahydro-2H-phthalazin-1-one] here?
**A.** 219 to 220 °C

**Q.** What about the “Inhibition of PDE4 acitivity [measured as -logIC50 (mol/l)]” value [1] of the same compound?
**A.** 10.50

**Q.** With `COc1ccc(C2=NN(C3CCN(C(=O)NC(C)(C)C)CC3)C(=O)[C@@H]3CC=CC[C@H]23)cc1OC` [compound 8, 4-[(4aS,8aR)-4-(3,4-Dimethoxyphenyl)-1-oxo-4a,5,8,8a-tetrahydro-1H-phthalazin-2-yl]-piperidine-1-carboxylic acid tert-butylamide] as the compound, how does the “Inhibition of PDE4 acitivity [measured as -logIC50 (mol/l)]” value [1] read?
**A.** 10.18

**Q.** With `COc1ccc(C2=NN(C3CCN(Cc4ccc5ccc(=O)oc5c4)CC3)C(=O)[C@@H]3CC=CC[C@H]23)cc1OC.Cl` [compound 18, (4aS,8aR)-4-(3,4-Dimethoxyphenyl)-2-[1-(2-oxo-2H-chromen-7-ylmethyl)-piperidin-4-yl]-4a,5,8,8a-tetrahydro-2H-phthalazin-1-one hydrochloride] as the compound, how does the melting point read?
**A.** 264 to 267 °C

**Q.** And the “Inhibition of PDE4 acitivity [measured as -logIC50 (mol/l)]” value [1]?
**A.** 10.32

**Q.** Which results are given for `COc1ccc(C2=NN(C3CCN(CC(=O)c4cc(Cl)c(N)c(Cl)c4)CC3)C(=O)[C@@H]3CC=CC[C@H]23)cc1OC.Cl` [compound 14, (4aS,8aR)-2-{1-[2-(4-Amino-3,5-dichloro-phenyl)-2-oxo-ethyl]-piperidin-4-yl}-4-(3,4-dimethoxy-phenyl)-4a,5,8,8a-tetrahydro-2H-phthalazin-1-one hydrochloride]?
**A.** melting point: 206 °C (dec.); Inhibition of PDE4 acitivity [measured as -logIC50 (mol/l)] [1]: 10.33

**Q.** With `CCOc1ccc(C2=NN(C3CCN(C(=O)Nc4ccccc4)CC3)C(=O)[C@@H]3CC=CC[C@H]23)cc1OCC` [compound 7, 4-[(4aS,8aR)-4-(3,4-Diethoxyphenyl)-1-oxo-4a,5,8,8a-tetrahydro-1H-phthalazin-2-yl]-piperidine-1-carboxylic acid phenylamide] as the compound, how does the “Inhibition of PDE4 acitivity [measured as -logIC50 (mol/l)]” value [1] read?
**A.** 10.28

**Q.** With `COc1ccc(C2=NN(C3CCN(C(=O)NC(C)(C)C)CC3)C(=O)[C@H]3CC=CC[C@@H]23)c2c1OC(C)(C)C2` (relative stereo) [compound 9, (cis)-4-[4-(7-Methoxy-2,2-dimethyl-2,3-dihydro-benzofuran-4-yl)-1-oxo-4a,5,8,8a-tetrahydro-1H-phthalazin-2-yl]-piperidine-1-carboxylic acid tert-butylamide] as the compound, how does the “Inhibition of PDE4 acitivity [measured as -logIC50 (mol/l)]” value [1] read?
**A.** 10.65

**Q.** Which melting point does the source give for `COc1ccc(C2=NN(C3CCN(Cc4ccccn4)CC3)C(=O)[C@@H]3CC=CC[C@H]23)cc1OC.Cl.Cl` [compound 24, (4aS,8aR)-4-(3,4-Dimethoxy-phenyl)-2-(1-pyridin-2-ylmethyl-piperidin-4-yl)-4a,5,8,8a-tetrahydro-2H-phthalazin-1-one dihydrochloride] here?
**A.** 214 to 216 °C

**Q.** And the “Inhibition of PDE4 acitivity [measured as -logIC50 (mol/l)]” value [1]?
**A.** 10.63

**Q.** With `CCOc1ccc(C2=NN(C3CCN(C(=O)CCCC(=O)O)CC3)C(=O)[C@@H]3CC=CC[C@H]23)cc1OCC` [compound 4, 5-{4-[(4aS,8aR)-4-(3,4-Diethoxy-phenyl)-1-oxo-4a,5,8,8a-tetrahydro-1H-phthalazin-2-yl]-piperidin-1-yl}-5-oxo-pentanoic acid] as the compound, how does the melting point read?
**A.** 133 to 135 °C

**Q.** With `COc1ccc(C2=NN(C3CCN(Cc4cccnc4)CC3)C(=O)[C@@H]3CC=CC[C@H]23)cc1OC.Cl.Cl` [compound 23, (4aS,8aR)-4-(3,4-Dimethoxyphenyl)-2-(1-pyridin-3-ylmethyl-piperidin-4-yl)-4a,5,8,8a-tetrahydro-2H-phthalazin-1-one dihydrochloride] as the compound, how does the “Inhibition of PDE4 acitivity [measured as -logIC50 (mol/l)]” value [1] read?
**A.** 10.80

**Q.** Which melting point does the source give for `COc1ccc(C2=NN(C3CCN(Cc4ccncc4)CC3)C(=O)[C@@H]3CC=CC[C@H]23)cc1OC` [compound 12, (4aS,8aR)-4-(3,4-Dimethoxyphenyl)-2-(1-pyridin-4-ylmethyl-piperidin-4-yl)-4a,5,8,8a-tetrahydro-2H-phthalazin-1-one] here?
**A.** 196 to 197 °C

**Q.** What about the “Inhibition of PDE4 acitivity [measured as -logIC50 (mol/l)]” value [1] of the same compound?
**A.** 10.79

**Q.** Which melting point does the source give for `CCOc1ccc(C2=NN(C3CCN(S(=O)(=O)c4ccc(C)cc4)CC3)C(=O)[C@@H]3CC=CC[C@H]23)cc1OCC` [compound 1, (4aS,8aR)-4-(3,4-Diethoxyphenyl)-2-[1-(toluene-4-sulfonyl)-piperidin-4-yl]-4a,5,8,8a-tetrahydro-2H-phthalazin-1-one] here?
**A.** 99 to 101 °C

**Q.** For `CCOc1ccc(C2=NN(C3CCN(C(=O)N4CCOCC4)CC3)C(=O)[C@@H]3CC=CC[C@H]23)cc1OCC` [compound 22, (4aS,8aR)-4-(3,4-Diethoxyphenyl)-2-[1-(morpholine-4-carbonyl)-piperidin-4-yl]-4a,5,8,8a-tetrahydro-2H-phthalazin-1-one], which “Inhibition of PDE4 acitivity [measured as -logIC50 (mol/l)]” value [1] is on record?
**A.** 9.37

**Q.** Which “Inhibition of PDE4 acitivity [measured as -logIC50 (mol/l)]” value [1] does the source give for `COc1ccc(C2=NN(C3CCN(CCc4ccccc4)CC3)C(=O)[C@@H]3CC=CC[C@H]23)cc1OC.Cl` [compound 21, (4aS,8aR)-4-(3,4-Dimethoxyphenyl)-2-(1-phenethyl-piperidin-4-yl)-4a,5,8,8a-tetrahydro-2H-phthalazin-1-one hydrochloride] here?
**A.** 9.69

**Q.** With `COc1ccc(C2=NN(C3CCN(CC(=O)NC(C)C)CC3)C(=O)C3CC=CCC23)cc1OC` [compound 27, 2-{4-[(4aS,8aR)-4-(3,4-Dimethoxyphenyl)-1-oxo-4a,5,8,8a-tetrahydro-1H-phthalazin-2-yl]-piperidin-1-yl}-2H-isopropyl-acetamide] as the compound, how does the “Inhibition of PDE4 acitivity [measured as -logIC50 (mol/l)]” value [1] read?
**A.** 10.37

**Q.** Which “Inhibition of PDE4 acitivity [measured as -logIC50 (mol/l)]” value [1] does the source give for `CCOc1ccc(C2=NN(C3CCN(C(=O)CN4CCOCC4)CC3)C(=O)[C@@H]3CC=CC[C@H]23)cc1OCC.Cl` [compound 25, (4aS,8aR)-4-(3,4-Diethoxyphenyl)-2-[1-(2-morpholin-4-yl-ethanoyl)-piperidin-4yl]-4a,5,8,8a-tetrahydro-2H-phthalazin-1-one hydrochloride] here?
**A.** 10.19

**Q.** With `COc1ccc(C2=NN(C3CCN(Cc4ccc(-c5csnn5)cc4)CC3)C(=O)[C@@H]3CC=CC[C@H]23)cc1OC.Cl.Cl` [compound 28, (4aS,8aR)-4-(3,4-Dimethoxyphenyl)-2-[1-(4-1,2,3-thiadiazol-4-yl-benzyl)-piperidin-4-yl]-4a,5,8,8a-tetrahydro-2H-phthalazin-1-one dihydrochloride] as the compound, how does the “Inhibition of PDE4 acitivity [measured as -logIC50 (mol/l)]” value [1] read?
**A.** 10.24

**Q.** For `CCOc1ccc(C2=NN(C3CCN(C(=O)c4ccncc4)CC3)C(=O)[C@@H]3CC=CC[C@H]23)cc1OCC.Cl`, which melting point is on record?
**A.** 66 to 68 °C

**Q.** For `COc1ccc(C2=NN(C3CCN(CC(=O)N4CCOCC4)CC3)C(=O)[C@@H]3CC=CC[C@H]23)cc1OC.Cl` [compound 20, (4aS,8aR)-4-(3,4-Dimethoxyphenyl)-2-[1-(2-morpholin-4-yl-2-oxo-ethyl)-piperidin-4-yl]-4a,5,8,8a-tetrahydro-2H-phthalazin-1-one hydrochloride], which “Inhibition of PDE4 acitivity [measured as -logIC50 (mol/l)]” value [1] is on record?
**A.** 10.40

**Q.** For `COc1ccc(C2=NN(C3CCN(S(=O)(=O)c4cccc5c(N(C)C)cccc45)CC3)C(=O)[C@@H]3CC=CC[C@H]23)cc1OC` [compound 10, (4aS,8aR)-4-(3,4-Dimethoxyphenyl)-2-[1-(5-dimethylamino-naphthalene-1-sulfonyl)-piperidin-4-yl]-4a,5,8,8a-tetrahydro-2H-phthalazin-1-one], which “Inhibition of PDE4 acitivity [measured as -logIC50 (mol/l)]” value [1] is on record?
**A.** 9.57
